According to patent US11180518B2, “Phenyl-heterocycle-phenyl derivatives for use in the treatment or prevention of melanoma” (MAX-PLANCK-GESELLSCHAFT ZUR FÖRDERUNG DER WISSENSCHAFTEN …, priority 2017, dated 2021):
“Also recorded” adds a separate entry of the source. Like-named read-outs stand apart in the source and are kept apart here.

Tests used:
[1] = system: autophagy markers, LC3 and p62/SQSTM1; settings: mouse, in vivo; cited from earlier work
[2] = system: high-level α-synuclein expressing cell lines WM983-B; test: Initial screen of sixteen compounds from the DPP library; type: cell-based, human
[3] = system: WM983-B human melanoma xenografts; test: Melanoma xenograft study: H&E and LC3 staining of tumor sections; type: in vivo, nude mice; settings: food pellets with compound for seven days; vs control tumor
Source text: (§1) To determine whether the DPP compound, anle138b, when administered systemically to human MGP melanoma cells grown as subcutaneous tumors in nude mice, would reach the tumors, we performed the following study. A nude mouse, bearing high-level α-synuclein-expressing (MGP) WM983-B human melanoma xenografts on its lower right and on its lower left dorsal side, received, for seven days, food pellets mixed with anle138b. A second nude mouse, also bearing WM983-B tumors on its lower right as well as on its lower left dorsal side, received, for seven days, the same type of food pellets not containing anle138b. After the mice were sacrificed, we performed the following analyses on the post-mortem resected and thereafter, cryopreserved tumors.
4-week-old, female nude mice (CAnN.Cg-Foxn1nu/Crl) (Charles River Laboratories, Research Models and Services, Germany GmbH, Sulzfeld, Germany) were injected subcutaneously on their lower right as well as lower left dorsal side with WM983-B (MGP) human melanoma cells (1×10^7 cells per side). When the tumors had reached a size of 2.3 to 3.0 mm in any direction, the normal food pellet diet of one of the animals was replaced with food pellets mixed with anle138b [2 g of anle138b/kg of food pellets] […]

WM1158 melanoma cells = test: Melanoma cell proliferation analysis; type: cell-based, human
Source text: To assess the possible impact of anle138b as well as anle138c on the different melanoma cell lines, WM983-A, WM983-B and SK-MEL-5, we treated them with increasing doses of either compound, dissolved in dimethyl sulfoxide (DMSO), and added to serum-free culture medium. […] We also observed that treatment with anle138b caused a more rapid morphological change than anle138c. To determine whether the effect of the two anle compounds was related to the amount of α-synuclein produced by the cells, we compared the proliferation of the (VGP) WM983-A high-level and the (RGP/VGP) WM1158 low-level α-synuclein-producing melanoma cells over a period of 96 hr, with replenishment of each anle compound at 48 hr (FIGS. 8A and B).
10 or 30 mM stock solutions of anle138b or anle138c were made in DMSO. Since anle138b as well as anle138c bind strongly to FBS, melanoma cells, plated for 24 hr in tissue-culture medium containing 10% FBS, were rinsed three times with serum-free medium prior to addition of anle138b, anle138c, or an equivalent volume of DMSO only in serum-free medium. Forty-eight hours later, the cell culture medium was removed, followed by addition of an equivalent dose of anle138b or anle138c, or DMSO only in serum-free culture medium. […] Proliferation of melanoma cells that had received DMSO only, or were treated with anle138b was determined by counting the cells with a hemocytometer.

Binding to FBS = type: in vitro ADME
WM983-B melanoma cells = test: LDH cytotoxicity analysis; settings: 2, 5, 10 or 15 μM for 96 hr, replenishment at 48 hr
Method: Replicates of WM983-B as well as WM852 melanoma cells were plated at 3×10^5 cells per well in 35 mm tissue culture plates. Twenty-four hours later, the cells were rinsed three times with serum-free medium, followed by addition of increasing doses of anle138b or DMSO only. Forty-eight hours later, the cell culture medium was removed, followed by addition of equivalent doses of anle138b or DMSO only in serum-free medium. Culture medium, collected 48 hr later, was centrifuged to pellet and remove cellular debris. Using a PHERAstar FS microplate reader (BMG LABTECH GmbH, Ortenberg, Germany) and spectrophotometric absorbance measurement, the release of LDH enzyme activity into the tissue culture medium was determined with an LDH cytotoxicity assay kit (Roche Diagnostics Deutschland GmbH, Mannheim, Germany). […] Cells from the DMSO controls were trypsinized, counted, and lysed according to the manufacturer's instructions.

[4] = in vivo; cited from earlier work
[5] = system: WM983-A, WM983-B, and SK-MEL-5 melanoma cell lines; test: Apoptosis markers in treated melanoma cells; type: cell-based, human
Source text: Although the morphological changes in the WM983-A, WM983-B, and SK-MEL-5 melanoma cell lines following addition of anle138b occurred quite rapidly, they were not indicative of the cells undergoing apoptosis. […] Differential interference contrast (DIC) images of the morphology of the anle138b-treated WM983-B, SK-MEL-5, and WM1158 melanoma cells from the same panels are shown in FIG. 9.

[6] = Pharmacokinetic (HPLC) analysis of resected xenograft tumors; type: in vivo, nude mice; settings: female, CAnN.Cg-Foxn1nu/Crl nude, mouse, tumor (WM983-B human melanoma xenograft, oral, 2 g of anle138b/kg of food pellets), food pellets with 2 g/kg for seven days, read-out: level in the tumor
Source text: as §1, with “tumors. […]” for “tumors.”
Cryopreserved WM983-B human melanoma xenograft tissues were brought to 4° C. prior to their transfer into Precellys CKMix—2 mL tissue homogenizing tubes, and homogenization in 0.5 to 1.00 ml acetonitrile using a Precellys Evolution Super homogenizer (Bertin Instruments, Montigny-le-Bretonneux, France). […] The effluent was monitored for UV absorption at 260 nm. Samples were quantitated using peak area ratio of compounds to external standard.

SMILES: Brc1cccc(-c2cc(-c3ccc4c(c3)OCO4)n[nH]2)c1 [anle138b, 5-(3-Bromophenyl)-3-(3,4-methylenedioxyphenyl)-1H-pyrazole]
- level of the autophagy markers, LC3 and p62/SQSTM1 [1]: did not change
- effect on WM983-B cells in initial screen [2]: significantly affected; also recorded: strongest and most rapid effect
- LC3-positive cells in tumor sections [3]: more LC3-positive cells
- morphology of tumor cells (H&E) [3]: arranged in a scattered pattern with focally pronounced disturbances in the tissue's architecture
- proliferation (WM1158 melanoma cells; over 96 hr, replenishment at 48 hr): reduced proliferation only after 48 hr
- recovery of proliferation after removal of compound (WM1158 melanoma cells; removal at 96 hr, fresh culture medium containing serum): able to recover proliferation normally
- binding to FBS (Binding to FBS): bind strongly
- cell killing (LDH release) (WM983-B melanoma cells): strong killing that reached a maximum at a 10 μM dose
- oral bioavailability and blood-brain-barrier penetration [4]: excellent
- cleaved caspase 3 (apoptosis) [5]: nor were they positive for cleaved caspase 3
- concentration at 7 days ([6]; tumor from left dorsal side (218 mg)): 110 µM
- concentration at 7 days ([6]; tumor from right dorsal side (57 mg)): 125 µM
